# According to publication PMC11697113, “The Hsc70 system maintains the synaptic SNARE protein SNAP-25 in an assembly-competent state and delays its aggregation [drawing 1]” (The Journal of Biological Chemistry, 2024):
# Columns and labels:
# SNAP-25 [1] = conditions: also Fig. S1; cited from earlier work
# Description: SNAP-25 has four native cysteines that are palmitoylated upon interaction with the membrane. […] For all of our studies, the SNAP-25 CS mutant was used unless otherwise mentioned. We assessed formation of the Hsc70-SNAP-25 complex by CD and found no significant conformational ...
# [2] = system: SNARE complex with syntaxin and synaptobrevin; assay: SDS-resistant SNARE complex formation (SDS-PAGE); format: biochemical; conditions: without Hsc70, mixed with syntaxin and synaptobrevin, 1 M NaCl, 4 °C
# Method: We took aliquots of SNAP-25 at different time points of the aggregation reaction (at 0 h, in lag phase and at 64 h in the log or saturation phase, Fig. 2A) and mixed them with the SNARE motifs of syntaxin and synaptobrevin to allow the formation of the SNARE complex.
# Figure 6 Hsc70 facilitates incorporation of SNAP-25 into the SNARE complex in vitro. SDS-PAGE of SNAP-25 taken from the aggregation reactions (Fig. 2) at 0 h and 64 h after the initiation, without (left) and with Hsc70 (right), and mixed with syntaxin and synaptobrevin for the time indicated below each SDS-PAGE. SNAP-25 is expressed and purified from E. coli; a minor amount of the bacterial Hsp70 homolog DnaK (∼70 kDa) may copurify with SNAP-25, explaining the presence of higher molecular weight bands, with its proteolysis potentially occurring during ∼64-h SNAP-25 aggregation reactions. For synaptobrevin, we attribute the higher molecular weight bands to incomplete cleavage of GST-tagged synaptobrevin.
# The SNARE motifs were mixed in an equimolar ratio in the following order: synaptobrevin-2 (29–93), syntaxin-1A (191–253), and SNAP-25 taken from the aggregation reaction, in the presence of 1 M NaCl. The assembly reaction was incubated at 4 °C overnight while rotating. The SNARE motifs were concentrated using a 30-kDa molecular weight cutoff Amicon centrifugation filters and run on 4 to 20% gradient SDS-PAGE.
# SNAP-25 [3] = assay: Far-UV CD; format: physicochemical; conditions: far-UV CD 200–250 nm, 22 °C (Fig. S1)
# Method: SNAP-25 has four native cysteines that are palmitoylated upon interaction with the membrane. […] For all of our studies, the SNAP-25 CS mutant was used unless otherwise mentioned.
# The far-UV CD spectra (200–250 nm) were recorded on a Jasco J-1500 Circular Dichroism Spectrophotometer at 22 °C. The SNAP-25 WT, SNAP-25, and mixture of SNAP-25 and Hsc70 were taken in a 1 mm path length quartz cuvette. Figures show the average of ten scans where the buffer baselines were subtracted. Data were plotted using software using the Origin (Pro) program (OriginLab Corp).
# Hsc70 = molecular target: T1, Hsc70 (Homo sapiens, UniProt P11142); assay: Native PAGE / Western blot of SNAP-25-Hsc70 complex; format: binding; conditions: SNAP-25 10 μM, Hsc70 2 μM, anti-Hsc70 and anti-His Western blot
# T1 construct: 6X His-tag (TEV-cleavable) (cleaved yes); made in house; host or cells: E. coli Rosetta (DE3)
# Method: Figure 3 Hsc70 forms complexes with SNAP-25.A, native PAGE of SNAP-25 (10 μM) in the presence and absence of Hsc70 (2 μM). The difference in signal intensity of His-SNAP25 probed with antibody is likely due to altered epitope exposure upon formation of the SNAP-25-Hsc70 complex. B, binding of SNAP-25 (black), SNAP-25 SNN (SNNFR, orange), and SNC (SNCFR, green)) fragments to Hsc70 by competition followed by fluorescence anisotropy. Increasing concentrations of the competitors were added to a complex of Hsc70 (5 μM) and FITC-p5 peptide (50 nM). Error bars represent SDs from three independent experiments.
# Precast native PAGE gels (Bio-Rad, 4–20%) were used to separate proteins based on their conformation and charge. SNAP-25 (10 μM), Hsc70 (2 μM) and a mix of both samples were mixed with a nondenaturing loading buffer and directly loaded onto the gel without heating. Electrophoresis was carried out in Tris-glycine running buffer at 180V for approximately 1 h until the dye front reached the bottom of the gel. Gels were stained with Coomassie Brilliant Blue R-250 (Sigma-Aldrich) and destained in a methanol-acetic acid solution until clear bands were visible.
# SNAP-25 [4] = assay: SNAP-25 aggregation kinetics by optical density; format: biochemical; conditions: SNAP-25 (CS mutant) 50 μM alone, 37 °C, shaking 300 rpm, OD 360 nm, 20 mM phosphate buffer pH 7.4, 100 μM MgCl2, 100 mM KCl
# Method: To test our hypothesis that Hsc70 inhibits SNAP-25 aggregation, we monitored the aggregation kinetics of recombinantly expressed SNAP-25 in the absence and presence of Hsc70 by following optical density at 360 nm (Fig. 2). […] This lag time was elongated to ∼65 h in the presence of Hsc70. In neurons, Hsc70 works in collaboration with its co-chaperone CSPα. […] (Fig. S2A). Apg2 is a member of the Hsp110 family, which is known to suppress protein aggregation ([36]). […] (Fig. S2B).
# Figure 2 Hsc70 delays the aggregation of SNAP-25. Aggregation kinetics of SNAP-25 (50 μM) at 37 °C. Optical density of SNAP-25 was recorded at 360 nm in the absence (black) and in the presence of Hsc70 (5 μM, red), and Hsc70+CSPαJ (5 μM each, blue).
# Aggregation of SNAP-25 at 50 μM was followed by measuring the A360 in a 96-well plate using a BioTek plate reader (BioTek), at 37 °C with shaking at 300 rpm, in the absence and presence of Hsc70 and CSPαJ at 5 μM each, and Apg2 at 0.5 μM. The aggregation buffer included 20 mM phosphate buffer pH 7.4, 100 μM MgCl2, and 100 mM KCl, and an ATP-experiment was carried out using regeneration system (5 mM 2-phosphoenolpyruvate, 0.05 mg/ml pyruvate kinase, and 5 mM ATP), as described previously ([51]).
# Figure SI 2. Apg2 enhances the effect of Hsc70 on SNAP-25. (A) Aggregation kinetics of SNAP-25 (50 μM) at 37 °C. OD600 of SNAP-25 was recorded in the absence (black) and in the presence of Hsc70, Hsc70+CSPa-J (blue) and Hsc70+CSPa-J+Apg2 (turquoise). […]
# concentrations are SNAP-25 (50 μM), Hsc70 (5 μM), CSPa-J (5 μM) and Apg2 (0.5 μM).
# (B) Aggregation kinetics of SNAP-25 (50 μM) at 37 °C. OD600 of SNAP-25 was recorded in the absence (black) and in the presence of Apg2 (blue). […]
# T1 sequence (P11142 whole entry): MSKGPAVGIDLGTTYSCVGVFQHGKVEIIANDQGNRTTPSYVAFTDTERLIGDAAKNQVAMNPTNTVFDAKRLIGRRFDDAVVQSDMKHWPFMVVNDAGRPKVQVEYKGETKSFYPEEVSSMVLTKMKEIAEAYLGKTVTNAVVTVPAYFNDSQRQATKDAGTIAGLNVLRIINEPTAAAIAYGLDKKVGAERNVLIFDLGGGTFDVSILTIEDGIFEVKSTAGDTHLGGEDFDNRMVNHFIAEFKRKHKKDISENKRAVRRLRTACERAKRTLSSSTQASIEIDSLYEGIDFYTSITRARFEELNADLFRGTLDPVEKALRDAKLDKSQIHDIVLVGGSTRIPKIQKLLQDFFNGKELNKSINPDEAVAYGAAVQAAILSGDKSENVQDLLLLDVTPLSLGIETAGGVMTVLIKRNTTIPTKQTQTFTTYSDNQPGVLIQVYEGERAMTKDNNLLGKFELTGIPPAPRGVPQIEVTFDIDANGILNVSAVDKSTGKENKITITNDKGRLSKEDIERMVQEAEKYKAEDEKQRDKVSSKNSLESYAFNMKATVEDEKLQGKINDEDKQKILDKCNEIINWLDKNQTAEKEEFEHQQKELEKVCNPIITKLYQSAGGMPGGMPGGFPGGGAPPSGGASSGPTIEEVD
substance,measurement,setting,value
synaptosomal-associated 25 kDa protein [SNAP-25],secondary structure by CD,SNAP-25 [1],disordered with nascent helical tendencies
same,SNARE complex formation by SNAP-25 taken at 0 h of aggregation,[2],forms SDS-resistant SNARE complexes
same,SNARE complex formation by SNAP-25 taken at 64 h of aggregation,[2],unable to form the SNARE complexes
same,conformational change upon Hsc70-SNAP-25 interaction,SNAP-25 [3],no significant conformational change
same,complex formation of His-SNAP-25 with Hsc70,Hsc70,a complex can be seen
same,lag phase of SNAP-25 aggregation,SNAP-25 [4],~38 h
